Test results published in article PMC10820527, “Synthesis, Characterization, and Investigation of Anti-Inflammatory and Cytotoxic Activities of Novel Thiourea Derivatives of Naproxen” (Pharmaceutics, 2023).

Experiments:
[1] = test system: carrageenan-induced rat paw edema; assay: Carrageenan-induced rat paw edema model; assay type: in vivo; settings: for Rat Paw Thickness: mean ± SD; for inhibition in vivo at 2.5 mg/kg / inhibition in vivo at 5 mg/kg / inhibition in vivo at 10 mg/kg: Rattus norvegicus
Description: The Carrageenan-induced rat paw edema model was used to assess the anti-inflammatory potential of novel compounds 8–14. Induction of inflammation was performed in all animals by intraplantar injection of […] 0.5% carrageenan saline into the left hind paw.
Animals (n = 200) were randomly divided into the following groups: control groups, that received either 1% DMSO or naproxen, and experimental groups, that received the novel compounds 8–14.
Control groups included DMSO and naproxen groups. Rats belonging to the DMSO group received 1% DMSO in the same volume as the compounds 8–14, 60 min before carrageenan injection. Moreover, naproxen groups included rats that were subjected to naproxen treatment in three doses: 2.5 mg/kg, 5 mg/kg, and 10 mg/kg. Naproxen was applied in the same manner as 1% DMSO.
Experimental groups included rats that were treated with compounds 8–14 and they were divided into three subgroups depending on the applied dose: 2.5 mg/kg, 5 mg/kg, and 10 mg/kg. The examined compounds were dissolved in 1% DMSO prior to treatment and applied to rats 60 min before inducing inflammation, i.e., before carrageenan injection. Doses of naproxen and investigated compounds were defined based on our previously published research.
In order to quantify the anti-inflammatory effects of the tested compounds, left paw thickness was measured at specific time points: prior to inflammation induction (moment 0) and 1, 2, 3, and 4 h (moments 1, 2, 3, and 4) following carrageenan injection. Tissue thickness was measured in the middle of the rat paw using a Digital Vernier caliper (Aerospace, China). The percentage of inhibition of paw edema after treatment with different agents was calculated according to the formula, Equation (2):% Inhibition = 100 × [1 − (Yt/Yc)](2) where Yt = average increase in paw thickness in the treated group of rats between two measurement moments, and Yc = average increase in paw thickness in the untreated group of rats between two measurement moments.

[2] = test system: HeLa; assay: MTT cytotoxicity assay, HeLa; assay type: cell-based, human; settings: for IC50: Homo sapiens, HeLa, mean ± SD
Description: (§1) Three cancer cell lines (MDA-MB-231, HCT116 and HeLa; i.e., human breast cancer cells, human colorectal cancer cells, and human cervical cancer cells, respectively), and one non-malignant fibroblast MRC-5 cell line (control) were used in this study. The American Type Cell Collection (ATCC, Manassas, VA, USA) provided all examined cell lines. The cells were grown in a complete medium made up of high-glucose DMEM media supplemented with 10% fetal bovine serum and […] L-glutamine (both from Sigma-Aldrich, USA). The cells were cultured in 25 cc flasks (Thermo Fischer Scientific, Waltham, MA, USA) at 37 °C with 100% humidity in a 5% CO2 atmosphere.
(§2) The MTT test was used to assess the cytotoxicity of compounds 1–14 [44]. The cytotoxicity of naproxen was also investigated due to its clinical use and structural similarity. Throughout the exponential development period, cells were taken from culture flasks and counted, and 5 × 10^3 cells/well were planted into 96-well culture plates. Following that, the cell lines were treated with varying doses of the investigated chemicals (1–14), naproxen ([…]), and fresh complete media as a control. All evaluated cells were incubated for 24, 48, and 72 h at 37 °C in an environment containing 5% CO2 and 100% humidity. Following incubation, each well’s culture media was taken out, each well received an addition of MTT solution at a final concentration of 0.5 mg/mL, and the cells were left to incubate for an additional four hours. The MTT solution was then withdrawn carefully, and the formazan crystals were dissolved in DMSO. After shaking the plates for 10 min, absorbance at 595 nm was measured using a multiplate reader (Zenyth 3100, Anthos Labtec Instruments, Salzburg, Austria). All concentrations of the tested compounds were performed in three separate wells of the microtiter plates and in three separate experiments. The results were reported as a ratio to the control value, untreated cells. IC50 values were also determined using Microsoft Office Excel 2021. The percentage of viable cells was estimated by dividing the readout absorbance value in the wells containing treated cells by the average absorbance value measured in the wells containing untreated cells, and multiplying the result by 100 [44]. % of the viable cells = ((absorbance of treated cell-absorbance of blank)/(absorbance of untreated cell-absorbance of blank)) × 100(3)

[3] = test system: MDA-MB-231; assay: MTT cytotoxicity assay, MDA-MB-231; assay type: cell-based, human; settings: Homo sapiens, mean ± SD
Description: as §1, §2

[4] = 2.5 mg/kg, 1 h after carrageenan
[5] = 2.5 mg/kg, 2 h after carrageenan
[6] = 2.5 mg/kg, 3 h after carrageenan
[7] = 2.5 mg/kg, 4 h after carrageenan
[8] = 5.0 mg/kg, 1 h after carrageenan
[9] = 5.0 mg/kg, 2 h after carrageenan
[10] = 5.0 mg/kg, 3 h after carrageenan
[11] = 5.0 mg/kg, 4 h after carrageenan
[12] = 10.0 mg/kg, 1 h after carrageenan
[13] = 10.0 mg/kg, 2 h after carrageenan
[14] = 10.0 mg/kg, 3 h after carrageenan
[15] = 10.0 mg/kg, 4 h after carrageenan

Row | Compound | Rat Paw Thickness [1, 4] [mm] | Rat Paw Thickness [1, 5] [mm] | Rat Paw Thickness [1, 6] [mm] | Rat Paw Thickness [1, 7] [mm] | Rat Paw Thickness [1, 8] [mm] | Rat Paw Thickness [1, 9] [mm] | Rat Paw Thickness [1, 10] [mm] | Rat Paw Thickness [1, 11] [mm] | Rat Paw Thickness [1, 12] [mm] | Rat Paw Thickness [1, 13] [mm] | Rat Paw Thickness [1, 14] [mm] | Rat Paw Thickness [1, 15] [mm] | inhibition in vivo at 2.5 mg/kg ([1]; 2.5 mg/kg, 1 h) [%] | inhibition in vivo at 2.5 mg/kg ([1]; 2.5 mg/kg, 2 h) [%] | inhibition in vivo at 2.5 mg/kg ([1]; 2.5 mg/kg, 3 h) [%] | inhibition in vivo at 2.5 mg/kg ([1]; 2.5 mg/kg, 4 h) [%] | inhibition in vivo at 5 mg/kg ([1]; 5.0 mg/kg, 1 h) [%] | inhibition in vivo at 5 mg/kg ([1]; 5.0 mg/kg, 2 h) [%] | inhibition in vivo at 5 mg/kg ([1]; 5.0 mg/kg, 3 h) [%] | inhibition in vivo at 5 mg/kg ([1]; 5.0 mg/kg, 4 h) [%] | further results
1 | COc1ccc2cc([C@H](C)C(=O)NC(=S)Nc3ccccc3F)ccc2c1 [Compound 12, (S)-N-((2-fluorophenyl)carbamothioyl)-2-(6-methoxynaphthalen-2-yl)propanamide] | 6.83 ± 0.38 | 6.43 ± 0.40 | 6.00 ± 0.30 | 5.53 ± 0.06 | 6.07 ± 0.64 | 5.83 ± 0.49 | 5.57 ± 0.38 | 5.03 ± 0.12 | 6.33 ± 0.21 | 6.03 ± 0.06 | 5.60 ± 0.10 | 5.17 ± 0.21 | 8.84 | 16.7 | 24.3 | 37.8 | 18.4 | 19.7 | 18.9 | 35.6 | inhibition in vivo at 10 mg/kg ([1]; 10.0 mg/kg, 1 h): 19.7%; inhibition in vivo at 10 mg/kg ([1]; 10.0 mg/kg, 2 h): 24.2%; inhibition in vivo at 10 mg/kg ([1]; 10.0 mg/kg, 3 h): 33.3%; inhibition in vivo at 10 mg/kg ([1]; 10.0 mg/kg, 4 h): 46.7%; Cytotoxic effect against HeLa cells (in words) [2]: moderate cytotoxic effect; IC50 ([2]; 24 h): 135 ± 16.8 µM; IC50 ([2]; 48 h): 103 ± 9.5 µM; IC50 ([2]; 72 h): 72.8 ± 6.9 µM; IC50 ([3]; MDA-MB-231, 24 h, 24 h): > 200 µM; IC50 ([3]; MDA-MB-231, 48 h, 48 h): > 200 µM; IC50 ([3]; MDA-MB-231, 72 h, 72 h): > 200 µM
2 | COC(=O)[C@H](Cc1ccccc1)NC(=S)NC(=O)[C@@H](C)c1ccc2cc(OC)ccc2c1 [Compound 13, Methyl (((S)-2-(6-methoxynaphthalen-2-yl)propanoyl)carbamothioyl)phenylalaninate] | 7.0 ± 0.10 | 6.60 ± 0.10 | 6.13 ± 0.12 | 5.83 ± 0.06 | 6.90 ± 0.10 | 6.43 ± 0.32 | 5.90 ± 0.36 | 5.47 ± 0.23 | 6.77 ± 0.42 | 6.40 ± 0.36 | 6.10 ± 0.36 | 5.80 ± 0.30 | 6.12 | 13.6 | 22.5 | 24.4 | -0.68 | 9.09 | 20.7 | 31.1 | inhibition in vivo at 10 mg/kg ([1]; 10.0 mg/kg, 1 h): 19.7%; inhibition in vivo at 10 mg/kg ([1]; 10.0 mg/kg, 2 h): 27.3%; inhibition in vivo at 10 mg/kg ([1]; 10.0 mg/kg, 3 h): 29.7%; inhibition in vivo at 10 mg/kg ([1]; 10.0 mg/kg, 4 h): 33.3%; IC50 ([2]; 24 h): > 200 µM; IC50 ([2]; 48 h): > 200 µM; IC50 ([2]; 72 h): > 200 µM; IC50 ([3]; MDA-MB-231, 24 h, 24 h): > 200 µM; IC50 ([3]; MDA-MB-231, 48 h, 48 h): > 200 µM; IC50 ([3]; MDA-MB-231, 72 h, 72 h): 99.5 ± 8.2 µM
3 | COC(=O)[C@H](Cc1c[nH]c2ccccc12)NC(=S)NC(=O)[C@@H](C)c1ccc2cc(OC)ccc2c1 [Compound 14, Methyl (((S)-2-(6-methoxynaphthalen-2-yl)propanoyl)carbamothioyl)tryptophanate] | 6.53 ± 0.42 | 6.23 ± 0.25 | 5.90 ± 0.26 | 5.33 ± 0.49 | 6.77 ± 0.38 | 6.53 ± 0.42 | 6.17 ± 0.25 | 5.80 ± 0.10 | 7.03 ± 0.21 | 6.47 ± 0.06 | 6.03 ± 0.25 | 5.67 ± 0.21 | 12.9 | 16.7 | 18.9 | 37.8 | 25.2 | 27.3 | 33.3 | 42.2 | inhibition in vivo at 10 mg/kg ([1]; 10.0 mg/kg, 1 h): 11.6%; inhibition in vivo at 10 mg/kg ([1]; 10.0 mg/kg, 2 h): 27.3%; inhibition in vivo at 10 mg/kg ([1]; 10.0 mg/kg, 3 h): 36.9%; inhibition in vivo at 10 mg/kg ([1]; 10.0 mg/kg, 4 h): 46.7%; IC50 ([2]; 24 h): > 200 µM; IC50 ([2]; 48 h): 151 ± 14.2 µM; IC50 ([2]; 72 h): 110 ± 11.5 µM; IC50 ([3]; MDA-MB-231, 24 h, 24 h): > 200 µM; IC50 ([3]; MDA-MB-231, 48 h, 48 h): > 200 µM; IC50 ([3]; MDA-MB-231, 72 h, 72 h): 117 ± 15.3 µM
